Reference: ChEMBL document CHEMBL5576043, “Synthesis, radiosynthesis and biochemical evaluation of fluorinated analogues of sphingosine-1-phosphate receptor 3 specific antagonists using PET” (Bioorg Med Chem, 2024)

Key:
[1] = 1-Octanol/PBS partition coefficient, logD of the compound at pH 7.4 incubated for 3 mins; type: physicochemical
[2] = Retention time of compound by radio-HPLC analysis; type: physicochemical
[3] = Drug metabolism in formulated solution assessed as 4-[18F]fluoroaniline metabolite formation by measuring retention time after 180 mins by radio-HPLC analysis; type: ADME; details: 3 h
[4] = Drug metabolism in formulated solution assessed as decomposition mediated metabolite formation by measuring retention time after 180 mins by radio-HPLC analysis; type: ADME; details: 3 h
[5] = Drug metabolism in mouse serum assessed as decomposition mediated metabolite formation at 37 degreeC measured after 10 to 90 mins by radio-HPLC analysis; type: ADME, cell-free; details: time 10-90 min
[6] = Stability in mouse serum measured after 90 mins by radio-HPLC analysis; type: ADME, cell-free; details: 1.5 h
[7] = Drug metabolism in human serum assessed as decomposition mediated metabolite formation measured after 90 mins by radio-HPLC analysis; type: ADME, cell-free; details: 1.5 h
[8] = Drug accumulation in C57/BL6 mouse liver at 5 MBq, iv administered as bolus injection and measured upto 15 mins by imaging analysis; type: ADME, organism-based; details: in vivo, 0.25 h
[9] = Drug uptake in C57/BL6 mouse intestine at 5 MBq, iv administered as bolus injection and measured at 15 to 90 mins by imaging analysis; type: ADME, organism-based; details: in vivo, time 15-90 min
[10] = Drug uptake in C57/BL6 mouse kidney at 5 MBq, iv administered as bolus injection and measured for 90 mins by imaging analysis; type: ADME, organism-based; details: in vivo, 1.5 h
[11] = Drug uptake in C57/BL6 mouse urinary bladder at 5 MBq, iv administered as bolus injection and measured for 90 mins by imaging analysis; type: ADME, organism-based; details: in vivo, 1.5 h
[12] = Drug accumulation in C57/BL6 mouse heart at 5 MBq, iv administered as bolus injection and measured at 6 to 15 mins by imaging analysis; type: ADME, organism-based; details: in vivo, time 6-15 min
[13] = Drug accumulation in C57/BL6 mouse spleen at 5 MBq, iv administered as bolus injection and measured at 6 to 15 mins by imaging analysis; type: ADME, organism-based; details: in vivo, time 6-15 min
[14] = Drug accumulation in C57/BL6 mouse heart at 5 MBq, iv administered as bolus injection and measured at 15 to 90 mins by imaging analysis; type: ADME, organism-based; details: in vivo, time 15-90 min
[15] = Drug accumulation in C57/BL6 mouse spleen at 5 MBq, iv administered as bolus injection and measured at 15 to 90 mins by imaging analysis; type: ADME, organism-based; details: in vivo, time 15-90 min
[16] = Drug accumulation in C57/BL6 mouse lungs at 5 MBq, iv administered as bolus injection and measured at 0 to 5 mins by imaging analysis; type: ADME, organism-based, Lung; details: in vivo, time 0-5 min
[17] = Drug uptake in C57/BL6 mouse blood at 5 MBq, iv administered as bolus injection and measured after 90 mins by PET imaging analysis; type: ADME, organism-based; details: in vivo, 1.5 h
[18] = Drug uptake in C57/BL6 mouse blood at 5 MBq, iv administered as bolus injection and measured at 12 sec by PET imaging analysis; type: ADME, organism-based; details: in vivo, 12 s
[19] = Drug uptake in C57/BL6 mouse liver at 5 MBq, iv administered as bolus injection and measured at ~5 min by PET imaging analysis; type: ADME, organism-based; details: in vivo
[20] = Drug uptake in C57/BL6 mouse liver at 5 MBq, iv administered as bolus injection and measured at 90 min by PET imaging analysis; type: ADME, organism-based; details: in vivo, 1.5 h
[21] = Drug uptake in C57/BL6 mouse kidney at 5 MBq, iv administered as bolus injection and measured at 1.2 min by PET imaging analysis; type: ADME, organism-based; details: in vivo, 0.02 h
[22] = Drug uptake in C57/BL6 mouse kidney at 5 MBq, iv administered as bolus injection and measured at 90 min by PET imaging analysis; type: ADME, organism-based; details: in vivo, 1.5 h
[23] = Drug uptake in C57/BL6 mouse blood at 5 MBq, iv administered as bolus injection and measured within 24 sec by PET imaging analysis; type: ADME, organism-based; details: in vivo, 24 s
[24] = Drug uptake in C57/BL6 mouse lung at 5 MBq, iv administered as bolus injection and measured at 12 sec by PET imaging analysis; type: ADME, organism-based; details: in vivo, 12 s
[25] = Drug uptake in C57/BL6 mouse lung at 5 MBq, iv administered as bolus injection and measured within 4.5 min by PET imaging analysis; type: ADME, organism-based; details: in vivo, 0.075 h
[26] = Drug uptake in C57/BL6 mouse spleen at 5 MBq, iv administered as bolus injection and measured within 4.5 min by PET imaging analysis; type: ADME, organism-based; details: in vivo, 0.075 h
[27] = Drug uptake in C57/BL6 mouse spleen at 5 MBq, iv administered as bolus injection and measured after 90 min by PET imaging analysis; type: ADME, organism-based; details: in vivo, 1.5 h
[28] = Drug uptake in C57/BL6 mouse heart at 5 MBq, iv administered as bolus injection and measured at 24 sec by PET imaging analysis; type: ADME, organism-based; details: in vivo, 24 s
[29] = Drug uptake in C57/BL6 mouse heart at 5 MBq, iv administered as bolus injection and measured at 4.2 min by PET imaging analysis; type: ADME, organism-based; details: in vivo, 0.07 h
[30] = Drug uptake in C57/BL6 mouse heart at 5 MBq, iv administered as bolus injection and measured at 14.2 min by PET imaging analysis; type: ADME, organism-based; details: in vivo, 0.2367 h
[31] = Drug uptake in C57/BL6 mouse heart at 5 MBq, iv administered as bolus injection and measured at 90 min by PET imaging analysis; type: ADME, organism-based; details: in vivo, 1.5 h
[32] = Drug uptake in C57/BL6 mouse lymph node at 5 MBq, iv administered as bolus injection and measured at 60 min by PET imaging analysis; type: ADME, organism-based; details: in vivo, 1 h
[33] = Drug uptake in C57/BL6 mouse muscle tissue at 5 MBq, iv administered as bolus injection and measured at 60 min by PET imaging analysis; type: ADME, organism-based; details: in vivo, 1 h
[34] = Drug uptake in C57/BL6 mouse brain at 5 MBq, iv administered as bolus injection and measured at 90 min by PET imaging analysis; type: ADME, organism-based; details: in vivo, 1.5 h

logD at 0.05 h [1]: 1.55 | Retention_time [2]: 15.9 min | Retention_time [3]: 4.5 min | Retention_time [4]: 16.9 min | Drug metabolism [5]: Metabolite_Detected | Stability [6]: Stable | Drug metabolism [7]: ~ 7% | Drug uptake [8]: Active | Drug uptake [9]: Active | Drug uptake [10]: Not Active | Drug uptake [11]: Not Active | Drug uptake [12]: Active | Drug uptake [13]: Active | Drug uptake [14]: Not Active | Drug uptake [15]: Not Active | Drug uptake [16]: Active | Drug uptake [17]: Not Active | Drug uptake [18]: 37.5 %ID/cm3 | Drug uptake [19]: 41 %ID/cm3 | Drug uptake [20]: 10 %ID/cm3 | Drug uptake [21]: 8 %ID/cm3 | Drug uptake [22]: 4 %ID/cm3 | Drug uptake [23]: Not Active | Drug uptake [24]: 13 %ID/cm3 | Drug uptake [25]: Not Active | Drug uptake [26]: 11 %ID/cm3 | Drug uptake [27]: 3 %ID/cm3 | Drug uptake [28]: 7 %ID/cm3 | Drug uptake [29]: 5 %ID/cm3 | Drug uptake [30]: 6 %ID/cm3 | Drug uptake [31]: 3 %ID/cm3 | Drug uptake [32]: 2.1 %ID/cm3 | Drug uptake [33]: 1.9 %ID/cm3 | Drug uptake [34]: 3.9 %ID/cm3
Structure (SMILES): CC(C)(C)C(=O)/C(=N\Nc1ccc(Cl)cc1)Nc1ccc([18F])cc1
